Where a SMILES comes first, the peptide text is derived from it. Bridges are numbered along the chain shown (N, C = ends).
Legend:
CRIP1 [1] = molecular target: T1, CRIP1 (Homo sapiens, UniProt P50238); experiment: Saturation binding of FITC-labeled peptides; conditions: ΔΔG = RT ln K d,A1M − RT ln K d,A1, from apparent dissociation constants
T1 construct: enterokinase cleavage site and vector linker residues (N); made in house; host or cells: E. coli (pHAT10-CRIP1, IPTG induction)
T1 sequence (P50238 1-77): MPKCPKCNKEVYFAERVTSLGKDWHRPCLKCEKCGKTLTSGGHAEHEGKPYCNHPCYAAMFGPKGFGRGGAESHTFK
Text: We computationally redesigned A1 resulting in a peptide with a new sequence (denoted as A1M) predicted to bind to CRIP1 with higher affinity. To test this prediction, A1, B5 and A1M peptides were all synthesized and labeled with FITC for binding studies. Since the peptides encoded by the C7C phage library are at the N-terminus of the minor phage coat protein pIII followed by a short phage encoded spacer Gly-Gly-Gly-Ser, we included this 4-mer in the synthesized peptide. An additional C-terminal Lys was also included in order to enable fluorescent labeling of the peptide. […] We synthesized the cyclic form of the peptides, A1, B5 and A1M and determined their ability to bind CRIP1 using saturation binding experiments. […] To directly compare the affinity of the A1 and A1M peptides for CRIP1 protein, we performed a competitive binding assay and determined the IC50 for each of the peptides using FITC-A1M as the ligand. […]
The binding affinity of the peptides for CRIP1 protein was determined by saturation binding experiments,[55]. […] The fluorescence intensity in each well was determined on Infinite M200 Tecan Instrument (Tecan, NC) (Excitation wavelength: 494 nm, Emission wavelength: 530 nm). The apparent equilibrium dissociation constant, K d,apparent, was calculated by non-linear regression using GraphPad Prism (GraphPad Prism 4.0 Software, San Diego, CA). […]

CRIP1 [2] = molecular target: T1, CRIP1; experiment: Competitive binding assay against FITC-A1M; conditions: A1M vs A1, competing for FITC-A1M binding, from IC50
Procedure: The binding affinity of the A1 and A1M peptides for CRIP1 protein was directly compared by a competitive binding experiment,[56]. Labeled A1M peptide (FITC-A1M) was competed with increasing concentrations of either unlabeled A1M peptides or A1 peptide and the IC50 for each peptide calculated.
Ninety-six well plates were coated with 150 µl of PBS buffer containing 100 µg/ml of CRIP1 and incubated overnight at 4°C. The wells were then washed 3 times with 50 mM Tris, 150 mM NaCl, pH 7.5 (TBS) containing 0.1% Tween-20 (TBST), and then each well filled completely with blocking buffer (TBS containing 0.5% BSA), incubated at least 1 hour at 4°C, and then rapidly washed 3 times with TBST. Following washing 150 µl of binding buffer containing FITC-A1M peptides of 10 µM and appropriate dilutions of unlabeled A1 and A1M peptides (ranging from 0 to 300 µM) were added to the CRIP1 containing wells and incubated for 1 hour at 37°C with rocking. After incubation, the plates were washed three times with binding buffer. The fluorescence intensity in each well was determined on Infinite M200 Tecan Instrument (Tecan, NC) (Excitation wavelength: 494 nm, Emission wavelength: 530 nm). Ki was calculated by non-linear regression with one binding site using GraphPad Prism (GraphPad Prism 4.0 Software, San Diego, CA). […]

## CC(C)C[C@@H]1NC(=O)[C@@H](N)CSSC[C@@H](C(=O)NCC(=O)NCC(=O)NCC(=O)N[C@@H](CO)C(=O)N[C@@H](CCCCN)C(N)=O)NC(=O)CNC(=O)[C@H](CCCCN)NC(=O)CNC(=O)CNC(=O)CNC(=O)[C@H](CC(=O)O)NC1=O [A1M] (H-CLDGGGKGCGGGSK-NH2; disulfide 1-9; N-terminus assumed)
CRIP1 [1]
  experimental free energy change ΔΔG: -1.6 kcal/mol
CRIP1 [2]
  binding affinity relative to A1 (fold better): approximately 27.5 times

Reference: PMC2453235, “Identification and Rational Redesign of Peptide Ligands to CRIP1, A Novel Biomarker for Cancers” (PLoS Computational Biology, 2008)
